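Assay format: 96-well plates, 48-hour exposure. Here, GI50 denotes the concentration required for 50% inhibition of growth.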 Calls of active or inactive are those of the source. Cut-off read from the data, not from the text of the source: active = GI50 up to about 1.1 µM and inactive = higher.
How the values were obtained:
Assay in all cases: DTP human tumour cell line panel, 48 h
HOP-92 = test system: HOP-92
SNB-19 = test system: SNB-19
SK-MEL-5 = test system: SK-MEL-5
SK-OV-3 = test system: SK-OV-3
NCI/ADR-RES = test system: NCI/ADR-RES
NCI-H226 = test system: NCI-H226
NCI-H522 = test system: NCI-H522
UACC-62 = test system: UACC-62
SF-295 = test system: SF-295
SF-268 = test system: SF-268
UO-31 = test system: UO-31
MCF7 = test system: MCF7
SK-MEL-28 = test system: SK-MEL-28
786-0 = test system: 786-0
EKVX = test system: EKVX
HT-29 = test system: HT-29
Malme-3M = test system: Malme-3M
MDA-MB-231 = test system: MDA-MB-231

SMILES | GI50 (HOP-92) | GI50 (SNB-19) | GI50 (SK-MEL-5) | GI50 (SK-OV-3) | GI50 (NCI/ADR-RES) | GI50 (NCI-H226) | GI50 (NCI-H522) | GI50 (UACC-62) | GI50 (SF-295) | GI50 (SF-268) | GI50 (UO-31) | GI50 (MCF7) | GI50 (SK-MEL-28) | GI50 (786-0) | GI50 (EKVX) | GI50 (HT-29) | GI50 (Malme-3M) | GI50 (MDA-MB-231)
COC(=O)/C=C/c1cc(O)c2c(c1)[C@H](C(=O)OC)[C@@H](c1ccc(O)c(O)c1)O2 | 9.89 µM (inactive) | 0.0386 µM (active) | 0.0335 µM (active) | 0.319 µM (active) | 0.158 µM (active) | 2.48 µM (inactive) | 0.0706 µM (active) | 0.0865 µM (active) | 0.476 µM (active) | 0.635 µM (active) | 0.189 µM (active) | 0.108 µM (active) | 0.132 µM (active) | 0.152 µM (active) | 8.67 µM (inactive) | 3.16 µM (inactive) |  | 
COC1(OC)CCCc2c1no[n+]2[O-] |  | > 100 µM (inactive) | > 100 µM (inactive) | > 100 µM (inactive) | > 100 µM (inactive) | > 100 µM (inactive) | > 100 µM (inactive) | > 100 µM (inactive) | > 100 µM (inactive) | > 100 µM (inactive) | > 100 µM (inactive) | > 100 µM (inactive) | > 100 µM (inactive) | > 100 µM (inactive) | > 100 µM (inactive) | > 100 µM (inactive) | > 100 µM (inactive) | > 100 µM (inactive)
c1cnc2c(c1)-n1cccc1C1(CCCCC1)NN2 |  | > 100 µM (inactive) | 71.3 µM (inactive) |  |  | > 100 µM (inactive) | 63.1 µM (inactive) |  | 69.2 µM (inactive) | > 100 µM (inactive) | 26.9 µM (inactive) |  | > 100 µM (inactive) | > 100 µM (inactive) | 82.2 µM (inactive) | > 100 µM (inactive) | 62.1 µM (inactive) | 
O=C1CC(c2cccc(Cl)c2)n2cccc21 (stereo not given) | 65.3 µM (inactive) | > 100 µM (inactive) |  | > 100 µM (inactive) | > 100 µM (inactive) | > 100 µM (inactive) |  | > 100 µM (inactive) | > 100 µM (inactive) | 74.6 µM (inactive) | 26.5 µM (inactive) | > 100 µM (inactive) | > 100 µM (inactive) | > 100 µM (inactive) |  | > 100 µM (inactive) |  | > 100 µM (inactive)
CCc1ccc2c(c1)CC1(C2)Cc2cc3c(cc2C1)C(=O)CC3 (stereo not given) | 14.7 µM (inactive) |  | 5.01 µM (inactive) | 25.1 µM (inactive) | 40.5 µM (inactive) | 19.7 µM (inactive) | 20.3 µM (inactive) | > 100 µM (inactive) | 19.1 µM (inactive) |  | 43.9 µM (inactive) | 5.08 µM (inactive) |  | 25.6 µM (inactive) | > 100 µM (inactive) | 6.31 µM (inactive) | 14.9 µM (inactive) | 21.2 µM (inactive)
CC(=O)Nc1ccc(/C=C/C(=O)c2sc(C(N)=S)nc2C)cc1 | > 100 µM (inactive) |  | > 100 µM (inactive) | > 100 µM (inactive) |  | > 100 µM (inactive) | > 100 µM (inactive) | > 100 µM (inactive) | > 100 µM (inactive) | > 100 µM (inactive) | > 100 µM (inactive) |  | > 100 µM (inactive) | > 100 µM (inactive) | > 100 µM (inactive) | > 100 µM (inactive) | > 100 µM (inactive) | 
Cc1c(C#N)c(N)n(C2OC(CO)C(O)C(O)C2O)c(=S)c1C#N (stereo not given) | > 100 µM (inactive) | > 100 µM (inactive) | > 100 µM (inactive) | 6.47 µM (inactive) |  | > 100 µM (inactive) | > 100 µM (inactive) | > 100 µM (inactive) | > 100 µM (inactive) | > 100 µM (inactive) | > 100 µM (inactive) | > 100 µM (inactive) | > 100 µM (inactive) | > 100 µM (inactive) | > 100 µM (inactive) | > 100 µM (inactive) | > 100 µM (inactive) | > 100 µM (inactive)

From ChEMBL document CHEMBL1201862, “PubChem BioAssay data set” (2004)
